Reference: US9421193B2, “Benzothiazole derivatives and a use thereof for the treatment of cancer” (Korea Institute of Radiological & Medical Sciences, priority 2014, dated 2016)

Legend:
[1] = system: non-small cell lung cancer cell strain H460; assay: Morphological changes, inverted microscope 200×; format: cell-based, human; conditions: 50 μM, 48 hours
Method: After the incubation along with 50 μM of the compounds PB01 or PB11 for 48 hours, morphological changes in the non-small cell lung cancer cell strain H460 were observed using an inverted microscope at a magnification of 200×.

[2] = system: non-cancer lung cell strain MRC-5; assay: Cell growth inhibition in non-cancer lung cells; format: cell-based; conditions: MRC-5 non-cancer lung cells
[3] = system: non-small cell lung cancer cell strain H460; assay: Cancer cell growth inhibition, WST-1 cell viability; format: cell-based, human; conditions: compared among cell strains
Method: (§1) Cancer cell growth inhibitory effects of the compounds PB01 and PB11 of Examples 5 and 3 identified as PPAR-γ ligands were evaluated. Growth inhibitory effects of the compounds PB01 and PB11 of Examples 5 and 3 on various cancer cells, including human non-small cell lung cancer cell strains (A549, H460), breast cancer cell strains (MCF-7, T-470), colorectal cancer cell strains (LoVo, SW480), and leukocytes cancer cell strains (HL-60, K562) (American Type Culture Collection, Manassas, Va.), were evaluated using WST-1 method. About 5×10^3 cells per well of each type of cancer cell strains were portioned into a 96-well plate, and incubated with different concentrations of each of the compounds PB01 and PB11 of Examples 5 and 3 in 200 ul of a culture solution for 24 hours, 48 hours, and 72 hours. After the incubation for the different durations, 10 ul of a WST-1 solution was added to each well, followed by incubation at about 37° C. for about 1 hour. Absorbance at 450 nm was measured to determine cell viability.

[4] = system: non-small cell lung cancer cell strain A549; assay: as above; format: cell-based, human; conditions: compared among cell strains
Method: as §1

[5] = system: non-small cell lung cancer cell strain H460; assay: Trypan blue live cell count (cell viability); format: cell-based, human; conditions: for cancer cell apoptosis effect: 50 μM; for cancer cell apoptosis effect with respect to concentration and incubation time: FIGS. 3A and 3B, PB12 at 150 μM; for IC50: Homo sapiens, NCI-H460, time taken to reach the IC50 48 hours
Method: (§2) Whether the cancer cell growth inhibitory effects of the compounds PB01 and PB11 on the non-small cell lung cancer cell strains is associated with apoptosis was investigated. The cell growth inhibitory effects were evaluated by a trypan blue assay, and cell shapes were observed using an inverted microscope. The shapes of cell nuclei were observed via Hoeschst 33342 staining. Degrees of inducing apoptosis were quantized by flow cytometry (fluorescent activated cell sorting (FACS)).
(§3) After about 5×10^3 cells per well of each of the human non-small cell lung cancer cell strains A549 and H460 were portioned into a 96-well plate, about 10 uM to about 50 uM of the compounds PB01 or PB11 in 200 ul of culture solution were added into the wells, and incubated for about 8 to 72 hours. Cells were collected from the incubation product, and centrifuged at about 2,000 rpm for 5 minutes. After removing a supernatant, the remaining cells were mixed with 1 mL of phosphate-buffered saline (PBS) to obtain a cell suspension, which was then mixed with an equal amount of 0.5% trypan blue (Gibco BRL), followed by treatment for about 1 minute. The number of live cells was counted using a phase-contrast) microscope. The live cell counting was repeated three times, and an average live cell count and a standard error were calculated using a Microsoft Excel program. Cell viability graphs with respect to compound concentration and incubation time were obtained. The same experiment was performed with 50 μM of the compound PB01, PB11 50 μM of the compound PB11, or 150 μM of the compound PB12 150 μM, and cell viability graphs with respect to compound concentration and incubation time were obtained.

[6] = system: non-small cell lung cancer cell strain A549; assay: Trypan blue live cell count (cell viability); format: cell-based, human; conditions: for cancer cell apoptosis effect: 50 μM; for cancer cell apoptosis effect with respect to concentration and incubation time: 10-50 uM, 8 to 72 hours, FIG. 3A; for IC50: Homo sapiens, time taken to reach the IC50 48 hours
Method: as §2, §3

[7] = system: non-cancer lung cell strain MRC-9; assay: Cell growth inhibition in non-cancer lung cells; format: cell-based; conditions: MRC-9 non-cancer lung cells
[8] = system: non-small cell lung cancer cell strain H460; assay: Radiation sensitivity measurement, colony formation; format: cell-based, human; conditions: 14 days
Method: About 500 cells of non-small cell lung cancer cell strain H460 were floated on each of 60-mm cell culture plates, and then incubated for about 24 hours. After the cells were stably fixed on the bottom of the cell culture plate, the cells were treated with ciglitazone (10 μM), PB01 (10 μM), or PB11 (5 μM, 10 μM), cultured for about 24 hours, and then irradiated with γ-radiation (3.2 Gy/min, Gammacell 3000; Atomic Energy of Canada, Ltd., Mississauga, ON, Canada) at doses of 2 Gy, 4 Gy, and 6 Gy. After incubation for 14 days, followed staining using a 1% crystal violet staining reagent solution (in methanol) to selectively count colonies having a diameter of about 0.5 mm or larger. SF (surviving fraction)=number of colonies formed/number of cells seeded×plating efficiency of the control group

| Compound | morphological changes [1] | cell growth inhibitory effect [2] | cancer cell growth inhibition [3] | cancer cell growth inhibition [4] | cancer cell apoptosis effect [5] | cancer cell apoptosis effect with respect to concentration and incubation time [5] | IC50 [5] [µM] | cancer cell apoptosis effect [6] | cancer cell apoptosis effect with respect to concentration and incubation time [6] | IC50 [6] [µM] | cell growth inhibitory effect [7] | effect as radiation sensitizer ([8]; 10 μM in combination with radiation at a dose of 4 Gy) | effect as radiation sensitizer ([8]; 5 μM in combination with radiation at a dose of 4 Gy) |
| --- | --- | --- | --- | --- | --- | --- | --- | --- | --- | --- | --- | --- | --- |
| COC1CCC(C(=O)Nc2ccc3nc(SCc4c(C)noc4C)sc3c2)CC1 (centres unmarked) [PB01] | lose adhesion with reduced density | nearly zero | most effective | most effective | remarkable cancer cell apoptosis effects | improved cancer cell apoptosis effects with increases in concentration and incubation time | 50 | remarkable cancer cell apoptosis effects | improved cancer cell apoptosis effects with increases in concentration and incubation time | 50 | nearly zero | significant effect as radiation sensitizers |  |
| Cc1noc(C)c1CSc1nc2ccc(NC(=O)C3CCC(=O)CC3)cc2s1 [PB11] | lose adhesion with reduced density |  |  |  | remarkable cancer cell apoptosis effects | improved cancer cell apoptosis effects with increases in concentration and incubation time | 50 | remarkable cancer cell apoptosis effects | improved cancer cell apoptosis effects with increases in concentration and incubation time | 50 |  |  | significant effect as radiation sensitizers |
